The values below come from patent publication US20250304551A1 (SHANGHAI APEIRON THERAPEUTICS COMPANY LIMITED, priority 2022, published 2025).

In assay [1] the target is T1, Human KIF18A (amino acid sequence 1-417) (Homo sapiens, UniProt Q8NI77).
T1 construct: purchased Viva Biotech (Shanghai) Ltd
Briefly: Enzyme activity detection experiment (ADP-Glo, KIF18A with tubulin and ATP). The assay is classed as biochemical. Particulars: tubulin 60 μg/mL, ATP 25 μM, KIF18A protein 2.5 nM, 120 minutes at ambient temperature, ADP-Glo chemiluminescence. In a few lines:
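KIF18A (2.5 nM) was incubated with tubulin (60 μg/mL as added), ATP (25 μM) and serially diluted compound for 120 min at ambient temperature. ADP formed was detected by ADP-Glo: reagent for 30 min, then detection reagent for 30 min in the dark, with chemiluminescence read-out.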

A further assay concerns HT29 cells. Briefly: CyQuant cell proliferation activity test, HT29. The assay is classed as cell-based. Particulars: Homo sapiens, HT-29, 72 h, HT29 2000 cells per well, 3 days incubation, initial concentration 3000 nM, IC50 by XLFIT, read-out: HT-29 Cell Viability_IC50_nM. In a few lines:
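HT29 cells (2000/well, RPMI-1640 with 10% FBS) were plated overnight, then exposed to compound for 3 days at 37 °C, 5% CO2. Dosing was 9 concentrations, 3-fold dilutions from 3000 nM, in 0.20% DMSO. Proliferation was read with CyQuant reagent after 1 h, and IC50 derived from the curves.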

A further assay concerns OVCAR3 cells. The experiment in a line: Cell proliferation activity test, OVCAR3 (CyQUANT Direct). Particulars: Homo sapiens, OVCAR-3, 72 h, 3 days incubation, CyQUANT fluorescence detection, read-out: OVCAR-3 Cell Viability_IC50_nM. The assay is classed as cell-based. In a few lines: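 OVCAR3 cells seeded overnight, then exposed to compounds at 0-10 μM final (0.20% DMSO) for 3 days at 37° C. Cell number read by CyQUANT Direct fluorescence after 60 min at 37° C.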

T1 sequence (Q8NI77 1-417): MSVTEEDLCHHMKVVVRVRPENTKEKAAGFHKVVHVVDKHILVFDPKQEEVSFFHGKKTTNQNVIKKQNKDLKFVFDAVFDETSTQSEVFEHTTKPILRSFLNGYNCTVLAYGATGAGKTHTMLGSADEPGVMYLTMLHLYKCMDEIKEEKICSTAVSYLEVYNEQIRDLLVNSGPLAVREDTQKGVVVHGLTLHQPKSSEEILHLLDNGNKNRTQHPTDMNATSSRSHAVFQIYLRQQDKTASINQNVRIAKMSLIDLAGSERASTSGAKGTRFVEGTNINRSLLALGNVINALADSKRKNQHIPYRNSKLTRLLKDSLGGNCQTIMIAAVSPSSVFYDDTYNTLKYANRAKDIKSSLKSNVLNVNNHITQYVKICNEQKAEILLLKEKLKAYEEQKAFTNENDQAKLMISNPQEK
T1 sequence (Q2XVP4 whole entry partner): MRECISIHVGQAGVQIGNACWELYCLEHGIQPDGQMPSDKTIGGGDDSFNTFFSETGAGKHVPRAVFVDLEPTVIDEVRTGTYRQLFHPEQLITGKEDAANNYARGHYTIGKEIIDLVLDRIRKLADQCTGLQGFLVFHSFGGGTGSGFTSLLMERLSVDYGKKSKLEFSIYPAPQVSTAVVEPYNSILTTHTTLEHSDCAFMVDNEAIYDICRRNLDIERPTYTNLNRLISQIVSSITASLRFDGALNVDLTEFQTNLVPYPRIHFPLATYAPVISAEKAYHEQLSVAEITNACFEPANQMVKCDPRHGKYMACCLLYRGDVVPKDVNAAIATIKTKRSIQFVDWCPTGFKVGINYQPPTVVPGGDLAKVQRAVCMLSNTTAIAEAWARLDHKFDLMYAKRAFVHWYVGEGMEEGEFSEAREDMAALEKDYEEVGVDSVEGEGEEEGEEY
T1 sequence (P02554 whole entry partner): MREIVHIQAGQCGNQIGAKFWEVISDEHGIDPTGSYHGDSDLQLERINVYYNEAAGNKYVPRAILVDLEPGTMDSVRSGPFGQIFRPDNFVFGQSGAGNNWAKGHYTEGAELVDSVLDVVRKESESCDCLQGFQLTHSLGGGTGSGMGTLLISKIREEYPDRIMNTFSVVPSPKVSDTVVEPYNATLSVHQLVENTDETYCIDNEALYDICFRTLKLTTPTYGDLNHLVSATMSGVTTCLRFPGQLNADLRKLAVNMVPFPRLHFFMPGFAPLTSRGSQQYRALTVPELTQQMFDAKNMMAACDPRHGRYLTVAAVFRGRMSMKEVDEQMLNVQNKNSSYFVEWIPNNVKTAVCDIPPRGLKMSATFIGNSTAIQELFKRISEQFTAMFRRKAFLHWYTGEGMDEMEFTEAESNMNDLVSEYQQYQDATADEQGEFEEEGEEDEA

For `COc1cc(-c2cn(-c3ccc(NS(=O)(=O)CCO)cc3N3CCC4(CC3)CC4)nn2)nc(N2[C@H](C)COC[C@@H]2C)n1` [Example 53, N-(4-(4-(2-((3S,5R)-3,5-dimethylmorpholino)-6-methoxypyrimidin-4-yl)-1H-1,2,3-triazol-1-yl)-3-(6-azaspiro[2.5]octan-6-yl)phenyl)-2-hydroxyethane-1-sulfonamide], the IC50 in assay [1] is 296 nM; in the assay on HT29 cells it was 47 nM; with OVCAR3 cells it was 35 nM.

In the case of `CN(C)c1cc(-c2cn(-c3ccc(NS(=O)(=O)CCO)cc3N3CCC4(CC3)CC4)nn2)nc(N2CCC(F)(F)CC2)n1` [Example 54, N-(3-{6-azaspiro[2.5]octan-6-yl}-4-{4-[2-(4,4-difluoropiperidin-1-yl)-6-(dimethylamino)pyrimidin-4-yl]-1H-1,2,3-triazol-1-yl}phenyl)-2-hydroxyethane-1-sulfonamide], the IC50 was 277 nM in assay [1], 73 nM in the assay on HT29 cells and 84 nM with OVCAR3 cells.

With `Nc1cc(-c2cn(-c3ccc(NS(=O)(=O)CCO)cc3N3CCC4(CC3)CC4)nn2)nc(N2CCC(F)(F)CC2)n1` [Example 55, N-(4-{4-[6-amino-2-(4,4-difluoropiperidin-1-yl)pyrimidin-4-yl]-1H-1,2,3-triazol-1-yl}-3-{6-azaspiro[2.5]octan-6-yl}phenyl)-2-hydroxyethane-1-sulfonamide], the IC50 in assay [1] was 40 nM; in the assay on HT29 cells, 3 nM; with OVCAR3 cells it was 3 nM.

Regarding `CNc1cc(-c2cn(-c3ccc(NS(=O)(=O)CCO)cc3N3CCC4(CC3)CC4)nn2)nc(N2CCC(F)(F)CC2)n1` [Example 56, N-(3-{6-azaspiro[2.5]octan-6-yl}-4-{4-[2-(4,4-difluoropiperidin-1-yl)-6-(methylamino)pyrimidin-4-yl]-1H-1,2,3-triazol-1-yl}phenyl)-2-hydroxyethane-1-sulfonamide], the IC50 came to 110 nM in assay [1], 8 nM in the assay with HT29 cells and 9 nM with OVCAR3 cells.

Take `O=S(=O)(CCO)Nc1ccc(-n2cc(-c3cc(NCCO)nc(N4CCC(F)(F)CC4)n3)nn2)c(N2CCC3(CC2)CC3)c1` [Example 57, N-(3-{6-azaspiro[2.5]octan-6-yl}-4-{4-[2-(4,4-difluoropiperidin-1-yl)-6-[(2-hydroxyethyl)amino]pyrimidin-4-yl]-1H-1,2,3-triazol-1-yl}phenyl)-2-hydroxyethane-1-sulfonamide]: the IC50 in assay [1] was determined as 72 nM; with HT29 cells, 4.5 nM; in the assay on OVCAR3 cells, 8 nM.

As for `O=S(=O)(CCO)Nc1ccc(-n2cc(-c3cc(NC4CCOCC4)nc(N4CCC(F)(F)CC4)n3)nn2)c(N2CCC3(CC2)CC3)c1` [Example 58, N-(3-{6-azaspiro[2,5]octan-6-yl}-4-{4-[2-(4,4-difluoropiperidin-1-yl)-6-[(oxan-4-yl)amino]pyrimidin-4-yl]-1H-1,2,3-triazol-1-yl}phenyl)-2-hydroxyethane-1-sulfonamide], the IC50 in assay [1] turned out to be 779 nM; with HT29 cells, 286 nM; with OVCAR3 cells, 224 nM.

With `O=S(=O)(CCO)Nc1ccc(-n2cc(-c3cc(NCc4ccccn4)nc(N4CCC(F)(F)CC4)n3)nn2)c(N2CCC3(CC2)CC3)c1` [Example 59, N-(3-{6-azaspiro[2.5]octan-6-yl}-4-{4-[2-(4,4-difluoropiperidin-1-yl)-6-{[(pyridine-2-yl)methyl]amino}pyrimidin-4-yl]-1H-1,2,3-triazol-1-yl}phenyl)-2-hydroxyethane-1-sulfonamide], the IC50 in assay [1] turned out to be 437 nM; with HT29 cells it was 34 nM; in the assay on OVCAR3 cells it was 26 nM.

As to `O=S(=O)(CCO)Nc1ccc(-n2cc(-c3cc(NCc4cccnc4)nc(N4CCC(F)(F)CC4)n3)nn2)c(N2CCC3(CC2)CC3)c1` [Example 60, N-(3-{6-azaspiro[2.5]octan-6-yl}-4-{4-[2-(4,4-difluoropiperidin-1-yl)-6-{[(pyridine-3-yl)methyl]amino}pyrimidin-4-yl]-1H-1,2,3-triazol-1-yl}phenyl)-2-hydroxyethane-1-sulfonamide], the IC50 in assay [1] amounted to 433 nM; in the assay with HT29 cells it was 41 nM; with OVCAR3 cells, 29 nM.

Turning to `COc1cc(-c2cn(-c3ccc(NS(=O)(=O)CCO)cc3N3CCC4(CC3)CC4)nn2)cc(N2CCC(F)(F)CC2)n1` [Example 62, N-(4-(4-(2-(4,4-difluoropiperidin-1-yl)-6-methoxypyridin-4-yl)-1H-1,2,3-triazol-1-yl)-3-(6-azaspiro[2.5]octan-6-yl)phenyl)-2-hydroxyethane-1-sulfonamide], the IC50 was 272 nM in assay [1], 60 nM with HT29 cells and 59 nM in the assay with OVCAR3 cells.

As for `COc1cc(-c2cn(-c3ccc(NS(=O)(=O)CCO)cc3N3CCC4(CC3)CC4)nn2)c(F)c(N2CCC(F)(F)CC2)n1` [Example 63, N-(4-(4-(2-(4,4-difluoropiperidin-1-yl)-3-fluoro-6-methoxypyridin-4-yl)-1H-1,2,3-triazol-1-yl)-3-(6-azaspiro[2.5]octan-6-yl)phenyl)-2-hydroxyethane-1-sulfonamide], the IC50 in assay [1] was determined as 437 nM; in the assay on HT29 cells it was 153 nM; in the assay on OVCAR3 cells, 108 nM.

`Cc1cc(-c2cn(-c3ccc(NS(=O)(=O)CCO)cc3N3CCC4(CC3)CC4)nn2)cc(N2CCC(F)(F)CC2)n1` [Example 64, N-(4-(4-(2-(4,4-difluoropiperidin-1-yl)-6-methylpyridin-4-yl)-1H-1,2,3-triazol-1-yl)-3-(6-azaspiro[2.5]octan-6-yl)phenyl)-2-hydroxyethane-1-sulfonamide]: the IC50 in assay [1] is 177 nM; with HT29 cells, 27 nM; in the assay on OVCAR3 cells, 27 nM.

Turning to `Cc1cc(-c2cn(-c3ccc(NS(=O)(=O)CCO)cc3N3CCC4(CC3)CC4)nn2)c(F)c(N2CCC(F)(F)CC2)n1` [Example 65, N-(4-(4-(2-(4,4-difluoropiperidin-1-yl)-3-fluoro-6-methylpyridin-4-yl)-1H-1,2,3-triazol-1-yl)-3-(6-azaspiro[2.5]octan-6-yl)phenyl)-2-hydroxyethane-1-sulfonamide], the results for the IC50 (in assay [1]; in the assay with HT29 cells; with OVCAR3 cells) were 383 nM, 127 nM and 116 nM, respectively.

Regarding `Cc1cc(-c2cn(-c3ccc(NS(=O)(=O)CCO)nc3N3CCC4(CC3)CC4)nn2)nc(N2CCC(F)(F)CC2)n1` [Example 66, N-(6-{6-azaspiro[2.5]octan-6-yl}-5-{4-[2-(4,4-difluoropiperidin-1-yl)-6-methylpyrimidin-4-yl]-1H-1,2,3-triazol-1-yl}pyridin-2-yl)-2-hydroxyethane-1-sulfonamide], the IC50 in assay [1] was 62 nM; with HT29 cells it was 54 nM; in the assay with OVCAR3 cells, 52.7 nM.

On to `Cc1cc(-c2cn(-c3cnc(NS(=O)(=O)CCO)cc3N3CCC4(CC3)CC4)nn2)nc(N2CCC(F)(F)CC2)n1` [Example 67, N-(4-{6-azaspiro[2.5]octan-6-yl}-5-{4-[2-(4,4-difluoropiperidin-1-yl)-6-methylpyrimidin-4-yl]-1H-1,2,3-triazol-1-yl}pyridin-2-yl)-2-hydroxyethane-1-sulfonamide], for which the IC50 came to 12 nM in assay [1], 19 nM with HT29 cells and 25 nM with OVCAR3 cells.
